Data published in ChEMBL document CHEMBL1201862, “PubChem BioAssay data set” (2004).
The source made the active and inactive calls.

Legend:
[1] = target: T1, DNA repair and recombination protein RAD54-like (Homo sapiens, UniProt Q92698); assay: RAD54 Holliday junction migration blockers – biochemical, fluorescence, cherry-picked samples, dose series, confirmation (AID 651657); assay type: functional
T1 sequence (Q92698 whole entry): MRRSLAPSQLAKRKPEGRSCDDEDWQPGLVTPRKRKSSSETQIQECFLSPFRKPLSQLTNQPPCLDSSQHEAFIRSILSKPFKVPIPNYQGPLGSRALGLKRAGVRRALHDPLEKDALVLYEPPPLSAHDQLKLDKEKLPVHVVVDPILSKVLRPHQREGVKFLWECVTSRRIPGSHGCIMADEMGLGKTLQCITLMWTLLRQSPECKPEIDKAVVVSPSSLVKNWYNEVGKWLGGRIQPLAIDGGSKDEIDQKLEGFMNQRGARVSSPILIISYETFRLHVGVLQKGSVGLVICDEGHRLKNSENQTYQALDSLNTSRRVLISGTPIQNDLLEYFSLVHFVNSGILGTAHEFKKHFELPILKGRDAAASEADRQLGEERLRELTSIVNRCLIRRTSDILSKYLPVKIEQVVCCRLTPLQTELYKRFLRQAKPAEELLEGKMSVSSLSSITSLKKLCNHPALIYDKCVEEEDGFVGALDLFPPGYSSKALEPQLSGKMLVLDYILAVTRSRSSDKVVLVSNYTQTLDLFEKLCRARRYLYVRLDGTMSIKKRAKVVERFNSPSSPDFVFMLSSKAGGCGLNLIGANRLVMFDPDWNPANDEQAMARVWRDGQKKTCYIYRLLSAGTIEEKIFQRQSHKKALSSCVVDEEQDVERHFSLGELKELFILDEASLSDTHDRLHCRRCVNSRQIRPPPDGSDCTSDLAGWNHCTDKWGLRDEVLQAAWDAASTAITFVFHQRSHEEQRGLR

[2] = target: T2, DNA repair protein RAD52 homolog (Homo sapiens, UniProt P43351); assay type: functional, biochemical
T2 sequence (P43351 whole entry): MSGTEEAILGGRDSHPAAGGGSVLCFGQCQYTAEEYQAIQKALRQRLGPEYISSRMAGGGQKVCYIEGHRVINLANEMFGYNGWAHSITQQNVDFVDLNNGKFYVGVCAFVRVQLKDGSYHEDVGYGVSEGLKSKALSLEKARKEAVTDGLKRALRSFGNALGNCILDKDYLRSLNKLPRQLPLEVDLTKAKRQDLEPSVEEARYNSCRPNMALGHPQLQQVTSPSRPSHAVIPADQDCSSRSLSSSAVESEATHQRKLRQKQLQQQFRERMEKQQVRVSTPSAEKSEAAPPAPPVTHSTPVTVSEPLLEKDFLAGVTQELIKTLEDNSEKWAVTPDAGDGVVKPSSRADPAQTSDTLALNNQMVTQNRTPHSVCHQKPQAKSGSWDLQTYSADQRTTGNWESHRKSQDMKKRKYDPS

[3] = target: T3, Probable nicotinate-nucleotide adenylyltransferase (Staphylococcus aureus (strain N315), UniProt P65502); assay type: functional, Staphylococcus aureus subsp. aureus N315;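 as to IC50 Mean: confirmatory dose-response retesting of NadD inhibitor hits first found in an ultra-high-throughput screen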
T3 sequence (P65502 whole entry): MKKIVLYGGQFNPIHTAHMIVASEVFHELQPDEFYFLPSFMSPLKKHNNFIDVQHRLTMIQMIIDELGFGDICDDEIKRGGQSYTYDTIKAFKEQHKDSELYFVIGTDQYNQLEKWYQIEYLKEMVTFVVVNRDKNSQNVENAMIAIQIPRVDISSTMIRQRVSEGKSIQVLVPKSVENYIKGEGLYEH

[4] = target: T3, Probable nicotinate-nucleotide adenylyltransferase; assay type: functional, Staphylococcus aureus subsp. aureus N315; details: read-out: IC50_Mean
[5] = target: T4, COUP transcription factor 2 (Homo sapiens, UniProt P24468); assay: Luminescence-based cell-based high throughput dose response assay to identify inhibitors of COUP-TFII (NR2F2).; assay type: functional;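 also: HEK293 cells transiently cotransfected with COUP-TFII expression vector and reporter; luciferase reporter luminescence driven by COUP-TFII from the pX2-168 reporter plasmid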
T4 sequence (P24468 whole entry): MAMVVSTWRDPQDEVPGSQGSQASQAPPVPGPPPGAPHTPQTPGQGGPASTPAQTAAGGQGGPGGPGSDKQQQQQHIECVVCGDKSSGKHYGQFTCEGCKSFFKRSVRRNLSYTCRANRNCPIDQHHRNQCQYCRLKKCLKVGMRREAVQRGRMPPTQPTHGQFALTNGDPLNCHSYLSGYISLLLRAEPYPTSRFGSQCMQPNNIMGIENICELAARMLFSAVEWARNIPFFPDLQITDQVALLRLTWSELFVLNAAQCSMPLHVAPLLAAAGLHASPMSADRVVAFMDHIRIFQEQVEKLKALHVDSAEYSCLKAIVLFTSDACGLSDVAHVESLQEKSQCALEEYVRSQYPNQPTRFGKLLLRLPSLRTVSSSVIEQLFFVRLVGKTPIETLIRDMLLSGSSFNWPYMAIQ

Protein Wnt-3a = Protein Wnt-3a (Mus musculus, UniProt P27467); assay: antagonism of Wnt3a pathway luciferase reporter – Wnt-LIGHT cells, luminescence, selectivity assay for Gli-SUFU antagonist project, dose response (AID 651570); assay type: functional; details: read-out: IC50_Mean;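 also: Wnt-LIGHT reporter cells stimulated with conditioned medium from Wnt3a-producing cells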
Protein Wnt-3a, sequence (P27467 whole entry): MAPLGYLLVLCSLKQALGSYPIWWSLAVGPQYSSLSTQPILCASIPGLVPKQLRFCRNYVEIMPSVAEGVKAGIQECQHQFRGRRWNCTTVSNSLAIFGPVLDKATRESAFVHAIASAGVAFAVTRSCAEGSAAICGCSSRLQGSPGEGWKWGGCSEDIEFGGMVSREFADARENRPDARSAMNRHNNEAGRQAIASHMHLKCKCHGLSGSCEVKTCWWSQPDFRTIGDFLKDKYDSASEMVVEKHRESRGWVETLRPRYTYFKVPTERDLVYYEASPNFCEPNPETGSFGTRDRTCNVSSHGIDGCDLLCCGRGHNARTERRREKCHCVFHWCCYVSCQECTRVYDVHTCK

INS1 = assay: INS-1E survival protection against cytokine death – cell-based, luminescence, retest, dose response (AID 449756); assay type: functional; details: Rattus norvegicus;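 also: cell death triggered by IL-1 beta plus TNF-alpha plus IFN-gamma mixture; protective hits raise ATP signal compared with cytokine alone wells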
HEK293 = assay: EBV LMP1 TES2 canonical NF-kB signalling blockers – cell-based, HEK293, luciferase, cherry-pick, dose response (AID 588343); assay type: functional; details: Homo sapiens
[6] = target: Heat shock protein HSP 90-alpha (Homo sapiens, UniProt P07900); assay type: functional, organism-based
[7] = target: T5, Sentrin-specific protease 8 (Homo sapiens, UniProt Q96LD8); assay type: functional
T5 sequence (Q96LD8 whole entry): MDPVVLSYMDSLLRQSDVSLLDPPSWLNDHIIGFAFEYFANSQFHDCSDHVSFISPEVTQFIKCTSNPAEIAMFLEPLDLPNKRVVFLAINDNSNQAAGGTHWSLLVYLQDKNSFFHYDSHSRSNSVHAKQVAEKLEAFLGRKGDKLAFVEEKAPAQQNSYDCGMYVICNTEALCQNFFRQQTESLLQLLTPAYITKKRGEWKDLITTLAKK

[8] = Trypanosoma cruzi growth suppression in host cells – NIH3T3 host cells, beta-gal luminescence, confirmation (AID 2044); assay type: functional, cell-based;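 also: intracellular parasites grown in NIH/3T3 mouse fibroblasts as host cells; luminescent beta-galactosidase reporter signal from transgenic T. cruzi replicating inside host cells; inhibitors lower the luminescence signal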
[9] = target: T5, Sentrin-specific protease 8; assay type: functional; remark: listed apart in the source
[10] = NIH3T3 cell viability loss – ATP luminescence, mouse fibroblasts, counter-screen, dose response (AID 2010); assay type: functional, cell-based;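 also: cells exposed to compound for about 90 hours before reading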
[11] = target: Luciferin 4-monooxygenase (Photinus pyralis, UniProt P08659); assay: inhibition of purified Photinus pyralis luciferase – biochemical, luminescence, dose response (AID 1891)
Luciferin 4-monooxygenase, sequence (P08659 whole entry): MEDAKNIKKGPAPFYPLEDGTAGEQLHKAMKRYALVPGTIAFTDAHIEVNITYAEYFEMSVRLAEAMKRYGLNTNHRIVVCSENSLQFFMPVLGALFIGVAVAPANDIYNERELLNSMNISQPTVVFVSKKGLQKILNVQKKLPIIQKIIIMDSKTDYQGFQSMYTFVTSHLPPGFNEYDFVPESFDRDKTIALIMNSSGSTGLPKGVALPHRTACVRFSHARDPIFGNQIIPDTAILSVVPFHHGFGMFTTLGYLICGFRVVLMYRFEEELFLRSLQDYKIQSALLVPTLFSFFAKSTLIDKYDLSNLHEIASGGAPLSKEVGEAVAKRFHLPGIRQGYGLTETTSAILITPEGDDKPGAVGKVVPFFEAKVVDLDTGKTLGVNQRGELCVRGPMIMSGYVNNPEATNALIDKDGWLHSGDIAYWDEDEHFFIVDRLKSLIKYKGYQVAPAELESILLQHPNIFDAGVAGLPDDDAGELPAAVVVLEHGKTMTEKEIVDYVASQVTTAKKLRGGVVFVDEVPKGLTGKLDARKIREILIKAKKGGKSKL

cells = assay type: functional, cell-based; details: HEK-CNG
[12] = Luminescence Cell-Based Dose Confirmation HTS to Identify Inhibitors of Platelet Dense Granule Release. [Related pubchem assays: 1663 (Primary HTS), 1678 (Summary of Project)]; assay type: functional
Galanin receptor type 3 = target: T6, Galanin receptor type 3 (Homo sapiens, UniProt O60755); assay: Fluorescence-based cell-based primary high throughput dose response assay to identify antagonists of the Galanin Receptor 3 (GalR3).; assay type: functional
T6 sequence (O60755 whole entry): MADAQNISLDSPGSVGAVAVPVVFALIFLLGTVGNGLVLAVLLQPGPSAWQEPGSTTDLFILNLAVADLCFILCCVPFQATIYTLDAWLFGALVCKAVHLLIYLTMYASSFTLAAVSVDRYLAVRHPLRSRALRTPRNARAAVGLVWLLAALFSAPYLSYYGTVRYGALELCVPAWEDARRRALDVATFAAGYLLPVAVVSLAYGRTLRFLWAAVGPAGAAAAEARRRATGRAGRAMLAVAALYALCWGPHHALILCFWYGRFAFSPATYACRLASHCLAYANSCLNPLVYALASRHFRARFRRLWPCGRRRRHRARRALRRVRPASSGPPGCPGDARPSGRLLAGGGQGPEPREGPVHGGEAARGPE

[13] = target: T7, Calpain-2 catalytic subunit (Sus scrofa, UniProt P43367); assay: m-calpain protease blockers, concentration series – biochemical, fluorogenic peptide substrate, dose response (AID 1420); assay type: functional
T7 sequence (P43367 whole entry): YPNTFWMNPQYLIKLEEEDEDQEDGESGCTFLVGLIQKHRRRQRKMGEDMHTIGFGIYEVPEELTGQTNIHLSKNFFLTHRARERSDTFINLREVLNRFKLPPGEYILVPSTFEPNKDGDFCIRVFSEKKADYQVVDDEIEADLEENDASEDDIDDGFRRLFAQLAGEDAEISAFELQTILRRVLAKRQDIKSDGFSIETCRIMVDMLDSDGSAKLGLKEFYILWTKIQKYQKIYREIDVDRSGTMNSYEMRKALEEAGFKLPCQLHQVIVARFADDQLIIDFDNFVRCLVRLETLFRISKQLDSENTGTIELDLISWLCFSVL

[14] = system: Streptococcus sp. 'group A'; assay: Streptococcus pyogenes SK(-)GAS viability under kanamycin – luminescence, BacTiterGlo, confirmation, counter-screen for streptokinase expression inhibitor project, dose response (AID 1900); assay type: functional, organism-based
Streptococcus = assay: GAS UMAA2166 growth inhibition – luminescence, BacTiterGlo, counter-screen for streptokinase expression inhibitor project, dose response (AID 1915); assay type: functional, organism-based;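 also: potency for reduction of bacterial viability or growth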

For `Cc1cccn2c(=O)c3cc(C(=O)NCCN4CCOCC4)c(=N)n(CCCN4CCOCC4)c3nc12`, which AC50 [1] is on record?
Its AC50 is 8.19 µM (active).

And the AC50 [2]?
The AC50 was 4.63 µM (active).

With `CCOC(=O)c1c(-c2ccccc2Cl)csc1NC(=O)CSc1nc(C)cc(=O)[nH]1` as the compound, how does the IC50 [3] read?
Its IC50 is 11.6 µM (active).

And the IC50 [4]?
Its IC50 is 28.7 µM (active).

What does the source list for `Cc1sc2ncnc(NCC3COc4ccccc4O3)c2c1C` (centres undefined)?
IC50 [5]: 3.38 µM (active); IC50 (Protein Wnt-3a): 0.441 µM (active); AC50 (INS1): 1.68 µM (active); AC50 (HEK293): 35.9 µM (active)

For `Cc1ccc(NC(=S)N/N=C/c2ccc([N+](=O)[O-])s2)cc1`, which AC50 [6] is on record?
Its AC50 is 3.4 µM (active).

What about the IC50 [7] of the same compound?
Its IC50 is 21.5 µM (active).

What about the EC50 [8] of the same compound?
Its EC50 is 1.34 µM (active).

And the IC50 [9]?
Its IC50 is 18.4 µM (active).

What about the AC50 (INS1) of the same compound?
The AC50 was 6.72 µM (active).

And the EC50 [10]?
Its EC50 is 7.86 µM (active).

Which EC50 [11] does the source give for `CC1CC(=O)NN=C1c1ccc(NCCO)c([N+](=O)[O-])c1` (centres undefined) here?
Its EC50 is > 112 µM (not active).

And the EC50 (cells)?
The EC50 was > 29.9 µM (inactive).

And the EC50 [12]?
The EC50 was < 0.088 µM (active).

And the IC50 (Galanin receptor type 3)?
Its IC50 is 0.367 µM (active).

Which results are given for `Cn1c(N)c(C(=O)COC(=O)c2cnc(Cl)c(Cl)c2)c(=O)n(C)c1=O`?
EC50 (cells): > 29.9 µM (inactive); IC50 [13]: 10.1 µM (active); IC50 (Galanin receptor type 3): > 29.9 µM (inactive)

Which EC50 [14] does the source give for `Cc1cc(N/N=C\c2ccc(Br)cc2)nc(-n2nc(C)cc2C)n1` here?
The EC50 was 1.01 µM (active).

What about the EC50 (Streptococcus) of the same compound?
The EC50 was 3.74 µM (active).

And the AC50 (INS1)?
Its AC50 is 2.43 µM (active).

And the AC50 (HEK293)?
The AC50 was 3.83 µM (active).

With `CC(C)(C)C(=O)NC(=S)NNC(=O)c1ccc(Cl)cc1Cl` as the compound, how does the EC50 [14] read?
The EC50 was 1.88 µM (active).

And the EC50 (Streptococcus)?
Its EC50 is 5.5 µM (active).

What about the EC50 (cells) of the same compound?
Its EC50 is > 29.9 µM (inactive).

And the IC50 (Galanin receptor type 3)?
The IC50 was > 29.9 µM (inactive).
